{
  "source": "patent US20190002555A1",
  "about": "“ANTIGEN-BINDING PROTEINS TO MARINOBUFAGENIN” (REGENERON PHARMACEUTICALS, INC., priority 2015, published 2019)",
  "molecular_target": "T1, Na+/K+ ATPase (Homo sapiens, UniProt P05023)",
  "T1 construct": "An in-vitro cell-based assay was developed to assess the regulation of Na+/K+ ATPase by MBG using HEK293 cells; host or cells: HEK293/hnAChR α3/β4 cells",
  "assay": "Membrane potential assay: MBG inhibition of membrane repolarization",
  "assay_type": "cell-based",
  "description": "An in-vitro cell-based assay was developed to assess the regulation of Na+/K+ ATPase by MBG using HEK293 cells. HEK293 has Na+/K+ ATPase activity and contains the α1 isoform (Kochskämper et al. 1997, Biochim. Biophys. Acta 1325: 197-208). […] HEK293 cells expressing human neuronal nicotinic acetylcholine receptors (nAChR) subunits α3 and β4 (Accession # M37981 and #NM_000750), HEK293/hnAChR α3/β4 (Millipore) were used. The nAchR heterodimer is a ligand-gated ion channel that mediates influx of Na+ upon ligand binding (Corringer et al. 2000, Annu. Rev. Pharmacol. Toxicol. 40: 431-458). […] MBG was added to inhibit the repolarization of the cell through its effects on Na^+/K^+ ATPase. Changes in the membrane potential of the cells were monitored using a fluorescent dye whose intensity increases when the cells are depolarized and decreases as the cells are repolarized.\nFor the bioassay, cells were detached with Enzyme Free Cell Dissociation Buffer (Millipore) seeded into 96-well assay plates at 50,000 cells/well in Opti-MEM™ assay buffer supplemented with 0.1% FBS, penicillin/streptomycin and L-glutamine (known from this point forward as Opti-MEM™), and then incubated at 37° C. in 5% CO2 overnight. […] The plate was then placed into the FLIPR^Tetra® (Molecular Devices) and kinetic readings were collected at 25° C. […]",
  "note": "Several values for one entry are separate records, joined by “and”; a condition that tells them apart may be missing. Equal entries are not always repeated. Where two headings read alike, the source gives them in different places.",
  "data": [
    {"compound": "C[C@]12CC[C@H](O)C[C@@]1(O)CC[C@@H]1[C@@H]2CC[C@]2(C)[C@@H](c3ccc(=O)oc3)CC3O[C@@]312", "note": "(stereo partly drawn) [MBG, 3β, 5β-dihydroxy-14,15-epoxybufadienolide]", "values": [
      {"measurement": "IC50", "setting": "IC50 [M] of MBG (@ 100 nM Epibatidine)", "value": "6.6e-07 M and 4.5e-07 M"},
      {"measurement": "IC50", "setting": "read-out: IC50 of MBG", "value": "7e-07 M and 4.46e-07 M and 6.62e-07 M"}
    ]}
  ]
}
